Read-outs that look alike come from different tables or passages of the source.
Key:
in vitro = settings: human, microsomes, pH 7.4
Procedure: (§1) Metabolic Stability in Liver Microsomes Test
(§2) Human liver microsomes were purchased from BD-Biosciences (Woburn, Mass.). The test compound was received as a 3.5 mM stock solution in 100 percent dimethyl sulfoxide (“DMSO”, Sigma Aldritch). […] The test compound, β-nicotinamide adenine dinucleotide phosphate (“NADPH”, AppliChem Inc.) and liver microsome solutions are combined for incubation in three steps:
(§3) 1) 450 μl of liver microsome suspension, protein concentration of 1.1 mg/ml in 100 mM sodium (+)/phosphate (“NaPi”, pH 7.4, Sigma Aldritch) buffer, 5 mM magnesium chloride (“MgCl2, Sigma Aldritch) buffer, is pre-warmed at 37° C.;
(§4) 3) The reaction is initiated by the addition of 50 μl of pre-warmed 10 mM NADPH solution in 100 mM NaPi, pH 7.4.
(§5) Reaction components are mixed well and then 65 μl are immediately transferred into 130 μl of quench/stop solution (zero-time point, T0). […] ACN containing Internal Standard (100 ng/ml), is used as the quench solution to terminate metabolic reactions. The quenched mixtures are centrifuged at 1500 rpm (˜500×g) in an Allegra X-12 centrifuge, SX4750 rotor (Beckman Coulter Inc., Fullerton, Calif.) for fifteen minutes to pellet denatured microsomes. A volume of 90 μl of supernatant extract, containing the mixture of parent compound and its metabolites, is then transferred to a separate 96-well plate for LC/MS-MS analysis to determine the percent of parent compound that is remaining in the mixture. Peak integration is performed on all samples using the Hepatic Clearance Calculator of QuickCalc by Gubbs, Inc. The percent remaining calculation is performed by comparing the LC-MS/MS peak areas from the samples at each time point to those from the T0 samples for each compound.

[1] = molecular target: T1, human-mouse chimeric GPR119 (Homo sapiens, UniProt Q8TDV5, A235T/C313R/C323Y/E253K/F304I/F307L/G211A/G245S/H255C/K284R/L224V/L258Q/L288Q/L301F/P218V/P318T/Q252H/R262K/S214P/S219N/S228A/S309P/S322A/T217S/T239S/V227I/V300F); assay: Tet-inducible cAMP assay (cAMP accumulation, HTRF); assay type: cell-based
T1 construct: the first 198 amino acids of human GPR119; the C-terminal 137 amino acids of the mouse receptor; expressed in transfected cells
T1 sequence (Q8TDV5 with tags, fused parts or gaps G211A/S214P/T217S/P218V/S219N/L224V/V227I/S228A/A235T/T239S/G245S/Q252H/E253K/H255C/L258Q/R262K/K284R/L288Q/V300F/L301F/F304I/F307L/S309P/C313R/P318T/S322A/C323Y): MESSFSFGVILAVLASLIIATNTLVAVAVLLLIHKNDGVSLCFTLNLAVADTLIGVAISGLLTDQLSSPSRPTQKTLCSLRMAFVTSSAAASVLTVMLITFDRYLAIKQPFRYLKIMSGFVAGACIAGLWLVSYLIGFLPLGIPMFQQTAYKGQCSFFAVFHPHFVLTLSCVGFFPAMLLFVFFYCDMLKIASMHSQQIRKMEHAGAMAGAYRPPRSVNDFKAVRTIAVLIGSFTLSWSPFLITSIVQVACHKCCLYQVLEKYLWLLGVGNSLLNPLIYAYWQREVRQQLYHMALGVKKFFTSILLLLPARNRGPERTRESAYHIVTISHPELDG
Procedure: The in vitro modulation of recombinant human GPR119 was determined as follows.
A human-mouse chimeric GPR119 expression construct encoding 3 copies of the FLAG epitope tag, the first 198 amino acids of human GPR119 and the C-terminal 137 amino acids of the mouse receptor was cloned into a tetracycline inducible vector pcDNA5/FRT/TO (Invitrogen #V6520-20), which includes a hygromycin-resistance marker. Tightly controlled receptor expression was achieved by stable integration of this construct into the genome of a specific host cell line, Flp-In-T-Rex-HEK293, expressing the tetracycline repressor (Invitrogen). Once a stable hygromycin-resistant cell line was generated, the cells were maintained at 37° C. in a humidified 5% CO2 atmosphere in culture medium consisting of Dulbecco's modified Eagle's medium (DMEM; Invitrogen #11960) supplemented with 2 mM L-glutamine, 10% fetal bovine serum, 200 μg/ml hygromycin B, and 15 μg/ml blasticidin.
Forty-eight hours prior to the cAMP accumulation assay, cells stably expressing the chimeric human/mouse GPR119 construct were seeded at a density of 4×10^3 cells/well in 384 well poly-D-lysine coated solid white plates (BD #35-6661) and grown at 37° C. in a humidified 5% CO2 atmosphere in culture medium supplemented with 1 μg/ml tetracycline to induce expression of the receptor. On the day of the assay, medium was removed and cells were incubated for 50 min. at 37° C. in a humidified 5% CO2 atmosphere in 20 μl/well of assay buffer (phosphate-buffered saline with Ca^2+ and Mg^2+, 12 mM glucose, 0.1 mM isobutyl-methyl-xanthine, 0.1% fatty-acid free bovine serum albumin) with the desired concentration of compound added from a concentrated stock dissolved in dimethyl sulfoxide (DMSO) to give a final concentration of 1% DMSO in the assay. cAMP accumulation was measured using the CisBio homogeneous time resolved fluorescence (HTRF) assay kit (#62AM2PEC) following the manufacturer's protocol. Briefly, 10 μl each of the cAMP-HTRF fluorescence detection reagents were added to each well, and the samples were incubated for 40 min. at room temperature. Fluorescence was excited at 320 nm and measured at 665 and 620 nm using the Envision instrument (Perkin Elmer), the fluorescence ratio of 665/620 was calculated and converted to nanomolar concentrations of cAMP in each well by interpolation from a cAMP standard curve. The concentration-response curves and EC50 values were calculated with a four parameter logistic curve fit equation utilizing Excel/XLfit software (Microsoft and IDBS). The EC50 value was calculated as the concentration of agonist which increased the cAMP concentration to a value halfway between the baseline and the maximum.
Compounds of the present invention were tested in the Tet-inducible cAMP assay described immediately above and the results shown in Table 5 below were obtained.

male C57BL/6J mice = assay: Mouse oral glucose tolerance test; assay type: in vivo; settings: for Minimally efficacious Dose / Glucose Lowering: oral; for Minimally efficacious Dose: given 60 min before glucose load (2 g/kg), oGTT in C57BL/6J mice; for Glucose Lowering: plasma glucose AUC change vs vehicle at the minimally efficacious dose
Procedure: Mouse Oral Glucose Tolerance Test
Twenty four (24) male C57BL/6J mice (8-10 weeks old, average weight 28 g) were randomized into 4 groups (1 mouse/cage) of 6 mice per group based on fed plasma glucose and body weight. Prior to initiating the study, mice were fasted overnight and the next morning they were weighed and placed in the experimental lab. After 30 min in the environment, the mice were bled via tail tip at −60 min and immediately given their first oral administration of vehicle (40% PEG400, 10% Cremophor EL, 50% water) or compound solutions (5 ml/kg). At time 0 the mice were bled and given 50% glucose (2 g/kg) to initiate the oral glucose tolerance test (oGTT). The mice were bled 30, 60 and 120 min after the glucose load. Blood samples were drawn into potassium EDTA, placed on ice during the study and subsequently centrifuged for 10 min at 3000 rpm at 4° C. Plasma samples were diluted 11-fold for glucose analysis in the COBAS MIRA® System (Roche Diagnostics). Area under the curve was calculated from the plasma glucose time course data using the trapezoid rule with fasting plasma glucose as the baseline (GraphPad Prism Software). The statistical significance of the changes in the glucose AUCs resulting from the different treatments was determined by one-way ANOVA followed by Dunnett's test using the vehicle group as the control (JMP software, release 5.1.2).
Find below in Table 6 data for compared compounds (See WO 2009/012275 A1).

[2] = Metabolic stability in liver microsomes test; settings: human, pH 7.4
Procedure: as §1, §2, §3, §4, §5

[3] = Flp-In-T-Rex-HEK293 cells expressing chimeric human/mouse GPR119, cAMP accumulation, read-out: GPR119 EC50

EC50 [1, 3] [nM] | SMILES | half-life at 0.5 µM (in vitro) [h] | EC50 [1] [nM] | reduction in glucose (male C57BL/6J mice; at the stated dose (0.1 mg/kg Example 1; 0.3 mg/kg Example 224 of WO 2009/012275 A1)) [%] | Minimally efficacious Dose (male C57BL/6J mice) [mg/kg] | Glucose Lowering (male C57BL/6J mice) [%] | half-life at 0.5 µM [2] [h]
– | CS(=O)(=O)c1ccc(-n2cc(Cl)c(OC3CCN(c4ncc(C(F)(F)F)cn4)CC3)cc2=O)cc1 [Example 1, 5-Chloro-1-(4-(methylsulfonyl)phenyl)-4-(1-(5-(trifluoromethyl)pyrimidin-2-yl)piperidin-4-yloxy)pyridin-2(1H)-one] | 3 | 8 | 24 | 0.1 | −24 | –
– | CS(=O)(=O)c1ccc(-n2cc(Cl)c(OC3CCN(c4ncc(C(F)(F)F)cn4)CC3)cc2=O)c(F)c1 [Example 2, 5-Chloro-1-(2-fluoro-4-(methylsulfonyl)phenyl)-4-(1-(5-(trifluoromethyl)pyrimidin-2-yl)piperidin-4-yloxy)pyridin-2 (1H)-one] | 2.45 | 12 | – | 0.1 | −29 | –
– | CS(=O)(=O)c1ccc(-n2cc(Cl)c(OC3CCN(c4ncc(C(F)(F)F)cn4)CC3)cc2=O)cc1F [Example 3, 5-Chloro-1-(3-fluoro-4-(methylsulfonyl)phenyl)-4-(1-(5-(trifluoromethyl)pyrimidin-2-yl)piperidin-4-yloxy)pyridin-2(1H)-one] | 1.8 | 7 | – | 0.1 | −28 | –
– | CS(=O)(=O)c1ccc(-n2cc(Cl)c(OC3CCN(c4ncc(Cl)cn4)CC3)cc2=O)cc1 [Example 4, 5-Chloro-4-(1-(5-chloropyrimidin-2-yl)piperidin-4-yloxy)-1-(4-(methylsulfonyl)phenyl)pyridin-2(1H)-one] | – | 5 | – | 0.03 | −24 | 0.95
– | CS(=O)(=O)c1ccc(-n2cc(Cl)c(OC3CCN(c4ncc(Cl)cn4)CC3)cc2=O)c(F)c1 [Example 5, 5-Chloro-4-(1-(5-chloropyrimidin-2-yl)piperidin-4-yloxy)-1-(2-fluoro-4-(methylsulfonyl)phenyl)pyridin-2(1H)-one] | 1.75 | 3 | – | 0.06 | −29 | –
– | CS(=O)(=O)c1ccc(-n2cc(Cl)c(OC3CCN(c4ncc(Cl)cn4)CC3)cc2=O)cc1F [Example 6, 5-Chloro-4-(1-(5-chloropyrimidin-2-yl)piperidin-4-yloxy)-1-(3-fluoro-4-(methylsulfonyl)phenyl)pyridin-2(1H)-one] | – | 4 | – | 0.1 | −36 | 0.65
8 | CCS(=O)(=O)c1ccc(-n2cc(Cl)c(OC3CCN(c4ncc(C(F)(F)F)cn4)CC3)cc2=O)c(F)c1 [Example 8, 5-Chloro-1-(4-(ethylsulfonyl)-2-fluorophenyl)-4-(1-(5-(trifluoromethyl)pyrimidin-2-yl)piperidin-4-yloxy)pyridin-2(1H)-one] | 2 | – | – | 0.03 | −26 | –
13 | CCS(=O)(=O)c1ccc(-n2cc(Cl)c(OC3CCN(c4ncc(C(F)(F)F)cn4)CC3)cc2=O)cc1F [Example 9, 5-Chloro-1-(4-(ethylsulfonyl)-3-fluorophenyl)-4-(1-(5-(trifluoromethyl)pyrimidin-2-yl)piperidin-4-yloxy)pyridin-2(1H)-one] | 1.47 | – | – | – | – | –
2 | CCS(=O)(=O)c1ccc(-n2cc(Cl)c(OC3CCN(c4ncc(Cl)cn4)CC3)cc2=O)cc1 [Example 10, 5-Chloro-4-(1-(5-chloropyrimidin-2-yl)piperidin-4-yloxy)-1-(4-(ethylsulfonyl)phenyl)pyridin-2(1H)-one] | 0.583 | – | – | – | – | –
6 | CCS(=O)(=O)c1ccc(-n2cc(Cl)c(OC3CCN(c4ncc(Cl)cn4)CC3)cc2=O)c(F)c1 [Example 11, 5-Chloro-4-(1-(5-chloropyrimidin-2-yl)piperidin-4-yloxy)-1-(4-(ethylsulfonyl)-2-fluorophenyl)pyridin-2(1H)-one] | 0.85 | – | – | – | – | –
